Results as given in patent publication US20050112573A1, “Method of detecting toxic substance” (priority 2001, published 2005).

Tested on: yeast genes (level of expressed mRNA)
Test: DNA chip analysis of expressed mRNA of yeast genes after 2 h culture with a toxic chemical substance
Assay type: cell-based, Saccharomyces cerevisiae S288C
Conditions: for The level of expressed mRNA in the presence of chemical substance/ (ratio to absence): transport facilitation protein gene; for The level of expressed mRNA in the presence of chemical substance/: ratio to no chemical; for The level of expressed mRNA in the presence of chemical substance/ (ratio to absence of chemical substance): stress protein genes, DNA chip
Procedure: Yeast (Saccharomyces cerevtisiae S288C (α SUC2mal mel gap2 CUP1)) were cultured at 25° C. on YPD medium (yeast extract 1%, polypepton 2%, glucose 2%). One of toxic chemical substances was added to the cell at logarithmic growth phase, and the cell was further cultured for two hours. Cell was cultured without any chemical substance in the same condition, and was used as control. Concentrations of the chemical substances were defined to inhibit the growth of the yeast but not lead to death.
After the completion of cultivation, the culture was centrifuged to collect the cells. To the cells, sodium acetate buffer (50 mM sodium acetate, 10 mM EDTA, 1% SDS) was added, and the mixture was shaken at 65° C. for five minutes, followed by returning to room temperature, and obtaining the supernatant, which procedure was repeated two times. To the supernatant, ½ amount of a solution of phenol/chloroform was added, and the mixture was centrifuged to give a supernatant, which was added with an equal amount of chloroform, and the mixture was centrifuged to give a supernatant. To the supernatant, an equal amount of isopropanol containing 0.3 M sodium acetate was added, and the mixture was allowed to stand at room temperature for 30 minutes, after which the mixture was centrifuged to give a sediment of the whole RNAs. Seventy % ethanol was added to the sediment, and the mixture was again centrifuged to give a sediment, which was then dried and dissolved in water. mRNA was isolated from the whole RNAs as followings. In view of the fact that a poly A chain is attached to the 3′ terminus of mRNA, a polynucleotide having a poly T structure which was immobilized on the surface of latex beads was used to trap the mRNA, and then the mRNA was washed and eluted with spine column (Oligotex-dT30<Super>mRNA Purification Kit, Takara). Reverse transcription of the mRNA was conducted with a reverse transcriptase (Super Script II Reverse Transcriptase; catalogue No. 18064-014, GibcoBRL) using fluorescence-labeled nucleotides to give cDNAs that were introduced with Cy3-dUTP or Cy5-dUTP during the reverse transcription.
The labeled cDNAs were dissolved in TE buffer (10 mM Tris-HCl/1 mM EDTA, pH8.0), and the solution was dropped on the DNA chip containing the whole genes of yeast (DNA Chip Research Inc. Japan) so that the cDNAs were hybridized on the DNA chip at 65° C. for over 12 hours. The fluoresces intensity of the DNA chip was read with a scanner, and the ratio relative to the fluorescence intensity resulting from the absence of chemical substance was estimated as the following, which is shown in Tables 1 to 9: [formula]
In the Tables, “Intensity” indicated in the rightmost column is a value of the level of expressed mRNA of each gene in control cells as divided by the average level of the expressions of the whole genes.

sodium dodecylbenzosulfonate [(17)]
The level of expressed mRNA in the presence of chemical substance/in the absence of chemical substance (yeast gene YGR124W): 0.7 | The level of expressed mRNA in the presence of chemical substance/The level of expressed mRNA in the absence of chemical substance (yeast gene YGR136W): 1.3 | The level of expressed mRNA in the presence of chemical substance/ (ratio to absence) (yeast gene YGR138C): 0.7 | The level of expressed mRNA in the presence of chemical substance/ (yeast gene YGR153W): 1.3 | The level of expressed mRNA in the presence of chemical substance/in the absence of chemical substance (yeast gene YGR157W): 0.8 | The level of expressed mRNA in the presence of chemical substance/The level of expressed mRNA in the absence of chemical substance (yeast gene YGR189C): 2.3 | The level of expressed mRNA in the presence of chemical substance/in the absence of chemical substance (yeast gene YGR192C): 1.1 | The level of expressed mRNA in the presence of chemical substance/The level of expressed mRNA in the absence of chemical substance (yeast gene YGR213C): 12.8 | The level of expressed mRNA in the presence of chemical substance/ (yeast gene YGR223C): 1.1 | The level of expressed mRNA in the presence of chemical substance/in the absence of chemical substance (yeast gene YGR244C): 1.9 | The level of expressed mRNA in the presence of chemical substance/ (yeast gene YGR247W): 1.0 | The level of expressed mRNA in the presence of chemical substance/in the absence of chemical substance (yeast gene YGR254W): 1.3 | The level of expressed mRNA in the presence of chemical substance/The level of expressed mRNA in the absence of chemical substance (yeast gene YGR257C): 1.1 | The level of expressed mRNA in the presence of chemical substance/ (in its absence), gene YGR287C (yeast gene YGR287C, ratio of DNA chip fluorescence intensity to that without chemical substance): 1.0 | The level of expressed mRNA in the presence of chemical substance/ (in its absence), gene YGR288W (yeast gene YGR288W, ratio of DNA chip fluorescence intensity to that without chemical substance): 1.2 | The level of expressed mRNA in the presence of chemical substance/ (yeast gene YGR295C): 1.6 | The level of expressed mRNA in the presence of chemical substance/ (ratio to absence of chemical substance) (yeast gene YHL028W): 1.6 | The level of expressed mRNA in the presence of chemical substance/ (ratio to absence) (yeast gene YHL035C): 1.1 | The level of expressed mRNA in the presence of chemical substance/ (ratio to absence) (yeast gene YHL036W): 1.0 | The level of expressed mRNA in the presence of chemical substance/ (ratio to absence) (yeast gene YHL040C): 1.4 | The level of expressed mRNA in the presence of chemical substance/ (yeast gene YHL044W): 0.8 | The level of expressed mRNA in the presence of chemical substance/ (ratio to absence of chemical substance) (yeast gene YHL046C): 0.9 | The level of expressed mRNA in the presence of chemical substance/The level of expressed mRNA in the absence of chemical substance (yeast gene YHR004C): 1.4 | The level of expressed mRNA in the presence of chemical substance/in the absence of chemical substance (yeast gene YHR018C): 1.9 | The level of expressed mRNA in the presence of chemical substance/in the absence of chemical substance (yeast gene YHR043C): 1.4 | The level of expressed mRNA in the presence of chemical substance/in the absence of chemical substance (yeast gene YHR044C): 1.3 | The level of expressed mRNA in the presence of chemical substance/ (ratio to absence) (yeast gene YHR048W): 0.7 | The level of expressed mRNA in the presence of chemical substance/The level of expressed mRNA in the absence of chemical substance (yeast gene YHR071W): 2.6 | The level of expressed mRNA in the presence of chemical substance/ (ratio to absence) (yeast gene YHR092C): 0.9 | The level of expressed mRNA in the presence of chemical substance/ (ratio to absence) (yeast gene YHR094C): 1.4 | The level of expressed mRNA in the presence of chemical substance/in the absence of chemical substance (yeast gene YHR112C): 1.6 | The level of expressed mRNA in the presence of chemical substance/ (yeast gene YHR116W): 0.9 | The level of expressed mRNA in the presence of chemical substance/The level of expressed mRNA in the absence of chemical substance (yeast gene YHR139C): 1.4 | The level of expressed mRNA in the presence of chemical substance/The level of expressed mRNA in the absence of chemical substance (yeast gene YHR142W): 1.3 | The level of expressed mRNA in the presence of chemical substance/ (yeast gene YHR145C): 1.3 | The level of expressed mRNA in the presence of chemical substance/ (ratio to absence) (yeast gene YHR175W): 1.3 | The level of expressed mRNA in the presence of chemical substance/ (in its absence), gene YHR210C (yeast gene YHR210C, ratio of DNA chip fluorescence intensity to that without chemical substance): 1.4 | The level of expressed mRNA in the presence of chemical substance/ (in its absence), gene YIL006W (yeast gene YIL006W, ratio of DNA chip fluorescence intensity to that without chemical substance): 0.8 | The level of expressed mRNA in the presence of chemical substance/ (ratio to absence of chemical substance) (yeast gene YIL011W): 0.8 | The level of expressed mRNA in the presence of chemical substance/ (ratio to absence) (yeast gene YIL022W): 0.8 | The level of expressed mRNA in the presence of chemical substance/ (ratio to absence) (yeast gene YIL056W): 1.5 | The level of expressed mRNA in the presence of chemical substance/ (yeast gene YIL058W): 1.4 | The level of expressed mRNA in the presence of chemical substance/ (yeast gene YIL060W): 1.2 | The level of expressed mRNA in the presence of chemical substance/ (yeast gene YIL065C): 2.1 | The level of expressed mRNA in the presence of chemical substance/ (yeast gene YIL083C): 0.9 | The level of expressed mRNA in the presence of chemical substance/ (ratio to absence) (yeast gene YIL088C): 1.2 | The level of expressed mRNA in the presence of chemical substance/ (yeast gene YIL097W): 1.1
